Where two headings read alike, the source gives them in different places.
Assays:
[1] = test system: larvae of the mustard beetle (Phaedon cochleariae); test: Phaedon cochleariae spray test (PHAECO); conditions: Phaedon cochleariae, 168 h, read-out: effect (beetle larvae killed)
[2] = test system: greenhouse red spider mite (Tetranychus urticae); test: Tetranychus urticae spray test, OP-resistant (TETRUR), bean leaf disks; type: in vivo; conditions: Tetranychus urticae, foliar, 144 h, read-out: efficacy (spider mites killed)
Procedure: After 6 days, the effect in % is determined.

[3] = logP by HPLC on reversed-phase columns (C 18), EEC Directive 79/831 Annex V.A8; type: physicochemical; conditions: reversed-phase C18 HPLC column
Procedure: Calibration is carried out using unbranched alkan-2-ones (having from 3 to 16 carbon atoms) with known log P values (the log P values are determined by the retention times using linear interpolation between two successive alkanones).

[4] = test system: cattle ticks (Boophilus microplus); test: Boophilus microplus injection test (BOOPMI Inj); type: in vivo; conditions: Rhipicephalus microplus, 168 h; application rate 20 μg/animal, injection, after 7 days; read-out: efficacy (laying of fertile eggs)
Procedure: Solvent: dimethyl sulfoxide
1 μl of the active compound solution is injected into the abdomen of 5 engorged adult female cattle ticks (Boophilus microplus). The animals are transferred into dishes and kept in a climate-controlled room.
The activity is assessed after 7 days by laying of fertile eggs. Eggs whose fertility is not visible from the outside are stored in a climate-controlled cabinet until the larvae hatch after about 42 days. An efficacy of 100% means that none of the ticks has laid any fertile eggs; 0% means that all eggs are fertile.

[5] = application rate 500 g/ha, after 6 days
[6] = pH 2.7, [a] LC-MS, acidic range, pH 2.7, 0.1% aqueous formic acid/acetonitrile, read-out: logP(HCOOH)
[7] = pH 7.8, [b] LC-MS, neutral range, pH 7.8, 0.001 molar aqueous ammonium bicarbonate/acetonitrile, read-out: logP(neutral)

SMILES | pest or weed control at 500 g/ha [1] [%] | pest or weed control at 500 g/ha [2, 5] [%] | chromatographic logP [3, 6] | chromatographic logP [3, 7] | pest or weed control at 0.02 mg [4] [%] | pest or weed control at 500 g/ha [2] [%]
N/C(=N/c1cc(SCC(F)(F)F)c(Br)cc1Br)C(F)(F)F [Ia-28] | 100 | 100 | – | – | – | –
Cc1cc(F)c(/N=C(\N)C2(Cl)CC2F)cc1SCC(F)(F)F (centres unmarked) [Ia-29] | 100 | 100 | – | – | – | –
Cc1cc(F)c(/N=C(/Nc2ccc(Cl)cc2)C(F)(F)F)cc1SCC(F)(F)F [Ia-31] | 100 | 100 | 4.73 | 4.67 | – | –
Cc1cc(F)c(/N=C(\N)C2CC2F)cc1SCC(F)(F)F (centres unmarked) [Ia-33] | 83 | 100 | – | – | – | –
CN(C)/C(=N/c1cc(SCC(F)(F)F)c(Cl)cc1F)C(F)(F)F [Ia-35] | 100 | 100 | – | – | – | –
Cc1cc(Cl)c(/N=C(\N)C2(Cl)CC2)cc1SCC(F)(F)F [Ia-36] | 100 | 100 | – | – | – | –
Cc1cc(Cl)c(/N=C(\N)C(F)(F)C(F)(F)F)cc1SCC(F)(F)F [Ia-38] | 100 | 100 | – | – | – | –
Cc1cc(F)c(/N=C2\CCCN2C)cc1SCC(F)(F)F [Ia-39] | – | 100 | – | – | 100 | –
CN/C(=N\c1cc(SCC(F)(F)F)c(C)cc1F)c1cccc(Cl)c1 [Ia-44] | – | 100 | – | – | 100 | –
Cc1cc(F)c(/N=C(/Nc2ccc(C(F)(F)F)cc2)C(F)(F)F)cc1SCC(F)(F)F [Ia-45] | 100 | 80 | 4.82 | 4.71 | – | –
Cc1cc(F)c(/N=C(/c2ccc(Cl)cc2)N(C)C)cc1SCC(F)(F)F [Ia-50] | – | 100 | – | – | 100 | –
Cc1cc(C)c(SCC(F)(F)F)cc1/N=C(\N)c1cccnc1 [Ia-66] | – | 100 | – | – | 100 | –
Cc1cc(F)c(/N=C2\CCCN2c2ccccc2)cc1SCC(F)(F)F [Ia-78, 2-Fluoro-4-methyl-N-[(2E)-1-phenylpyrrolidin-2-ylidene]-5-[(2,2,2-trifluoroethyl)sulfanyl]aniline] | 100 | 100 | – | – | – | –
Cc1cc(F)c(/N=C(\N)[C@H]2CC2(C)C)cc1SCC(F)(F)F [Ia-79] | 100 | 100 | – | – | – | –
CN/C(=N\c1cc(SCC(F)(F)F)c(C)cc1F)c1ccncc1 [Ia-80] | – | 100 | – | – | 100 | –
Cc1cc(F)c(/N=C(\N)C2CC2)cc1SCC(F)(F)F [Ia-92] | 83 | 90 | – | – | – | –
N/C(=N/c1cc(SCC(F)(F)F)c(Br)cc1Cl)C(F)(F)F [Ia-121] | 100 | 100 | – | – | – | –
N/C(=N\c1cc(SCC(F)(F)F)c(Cl)cc1Cl)c1ccncn1 [Ia-130] | 83 | 100 | – | – | – | –
N/C(=N\c1cc(SCC(F)(F)F)c(Cl)cc1Cl)c1ccccn1 [Ia-134] | 83 | 100 | – | – | – | –
N/C(=N\c1cc(SCC(F)(F)F)c(Cl)cc1Cl)c1ccc(Cl)nc1 [Ia-135] | 100 | 100 | – | – | – | –
N/C(=N\c1cc(SCC(F)(F)F)c(Cl)cc1Cl)C1CC1 [Ia-139] | 100 | 100 | – | – | – | –
Cc1cc(F)c(/N=C(\c2ccc(Cl)s2)N(C)C)cc1SCC(F)(F)F [Ia-149, 5-Chloro-N′-{2-fluoro-4-methyl-5-[(2,2,2-trifluoroethyl)sulfanyl]phenyl}-N,N-dimethylthiophene-2-carboximidamide] | 100 | 90 | 2.11 | 4.89 | – | –
Cc1cc(F)c(/N=C(\c2cccn2C)N(C)C)cc1SCC(F)(F)F [Ia-162, N′-{2-Fluoro-4-methyl-5-[(2,2,2-trifluoroethyl)sulfanyl]phenyl}-N,N,1-trimethyl-1H-pyrrole-2-carboximidamide] | 100 | 100 | 1.67 | 4.11 | – | –
Cc1cc(F)c(/N=C(/NCc2ccccc2)C(F)(F)F)cc1SCC(F)(F)F [Ia-171] | 83 | 90 | – | – | – | –
Cc1cc(F)c(/N=C2\CCCN2c2ccc(C(F)(F)F)cc2)cc1SCC(F)(F)F [Ia-191] | 100 | 100 | – | – | – | –

SMILES | pest or weed control at 500 g/ha [1] [%] | pest or weed control at 500 g/ha [2, 5] [%] | chromatographic logP [3, 6] | chromatographic logP [3, 7] | pest or weed control at 0.02 mg [4] [%] | pest or weed control at 500 g/ha [2] [%]
CN(C)/C(CC(F)(F)F)=N\c1cc(SCC(F)(F)F)c(Cl)cc1Cl [Ia-202] | 100 | 100 | – | – | – | –
N/C(=N/c1ccc(Cl)c(SCC(F)(F)F)c1)C(F)(F)F [Ia-204, N′-{4-Chloro-3-[(2,2,2-trifluoroethyl)sulfanyl]phenyl}-2,2,2-trifluoroethanimidamide] | 83 | 90 | 3.1 | 3.1 | – | –
CN(C)/C(=N\c1cc(SCC(F)(F)F)c(Cl)cc1Cl)c1ccccc1Cl [Ia-207] | 83 | 100 | – | – | – | –
N/C(=N\c1cc(SCC(F)(F)F)c(Cl)cc1Cl)C1CCC1 [Ia-209] | 100 | 100 | – | – | – | –
N/C(=N\c1cc(SCC(F)(F)F)c(Cl)cc1Cl)C(Cl)(Cl)Cl [Ia-210] | 83 | – | – | – | – | 100
FC(F)(F)CSc1cc(/N=C(\NC2CC2)c2ccc(Cl)nc2)c(Cl)cc1Cl [Ia-229] | 100 | 90 | – | – | – | –
CN/C(=N/c1cc([S+]([O-])CC(F)(F)F)c(Cl)cc1Cl)C(F)(F)F (centres unmarked) [Ib-21] | – | 100 | 3.32 | 3.32 | – | –
Cc1cc(Cl)c(/N=C(\N)C2(Cl)CC2)cc1[S+]([O-])CC(F)(F)F (centres unmarked) [Ib-27] | 100 | 100 | – | – | – | –
Cc1cc(F)c(/N=C2\CCCN2c2ccc(C(F)(F)F)cc2)cc1[S+]([O-])CC(F)(F)F (centres unmarked) [Ib-30] | 83 | 100 | – | – | – | –
Cc1cc(F)c(/N=C(\NC2CC2)C2CC2)cc1[S+]([O-])CC(F)(F)F (centres unmarked) [Ib-39] | 100 | 100 | – | – | – | –
Cc1cc(F)c(/N=C(\N)C(F)F)cc1[S+]([O-])CC(F)(F)F (centres unmarked) [Ib-43] | 100 | 100 | – | – | – | –
Cc1cc(F)c(/N=C(/Nc2ccccc2)C(F)(F)F)cc1[S+]([O-])CC(F)(F)F (centres unmarked) [Ib-49] | – | 100 | 3.22 | 3.12 | – | –
CN/C(=N\c1cc([S+]([O-])CC(F)(F)F)c(C)cc1Cl)C(F)(F)F (centres unmarked) [Ib-56] | 100 | 100 | – | – | – | –
N/C(=N/c1cc([S+]([O-])CC(F)(F)F)c(Cl)cc1Br)C(F)(F)F (centres unmarked) [Ib-57] | 100 | 100 | – | – | – | –
Cc1cc(F)c(/N=C(\N)c2cnccn2)cc1[S+]([O-])CC(F)(F)F (centres unmarked) [Ib-62, N′-{2-Fluoro-4-methyl-5-[(2,2,2-trifluoroethyl)sulfinyl]phenyl}pyrazine-2-carboximidamide] | – | 100 | 0.84 | 1.77 | – | –
Cc1cc(F)c(/N=C2\SCC(=O)N2CC(F)(F)F)cc1[S+]([O-])CC(F)(F)F (centres unmarked) [Ib-71, 2-({2-Fluoro-4-methyl-5-[(2,2,2-trifluoroethyl)sulfinyl]phenyl}imino)-3-(2,2,2-trifluoroethyl)-1,3-thiazolidin-4-one] | – | 100 | 2.93 | 2.87 | – | –
CN/C(=N/c1cc([S+]([O-])CC(F)(F)F)c(Br)cc1F)C(F)(F)F (centres unmarked) [Ib-78] | 100 | 100 | – | – | – | –
[O-][S+](CC(F)(F)F)c1cc(/N=C(\NCC(F)(F)F)C2CC2)c(Cl)cc1Cl (centres unmarked) [Ib-83] | 100 | 100 | – | – | – | –
COc1ccc(N/C(=N/c2cc([S+]([O-])CC(F)(F)F)c(C)cc2F)C(F)(F)F)cc1 (centres unmarked) [Ib-86] | – | 100 | 3.04 | 3.05 | – | –
Cc1cc(F)c(/N=C(/NCc2ccc(C(F)(F)F)cc2)C(F)(F)F)cc1[S+]([O-])CC(F)(F)F (centres unmarked) [Ib-101] | 100 | 90 | – | – | – | –
CN/C(=N/c1ccc(Cl)c([S+]([O-])CC(F)(F)F)c1)C(F)(F)F (centres unmarked) [Ib-110] | 100 | 100 | – | – | – | –
Cc1ccc(/N=C(/N)C(F)(F)F)cc1[S+]([O-])CC(F)(F)F (centres unmarked) [Ib-111] | 100 | 90 | – | – | – | –
C#CCN/C(=N\c1cc([S+]([O-])CC(F)(F)F)c(C)cc1F)C1CC1 (centres unmarked) [Ib-137] | 83 | 100 | – | – | – | –
Cc1cc(F)c(/N=C(/c2ccc(Cl)cc2)N2CCC(F)(F)CC2)cc1[S+]([O-])CC(F)(F)F (centres unmarked) [Ib-143] | 83 | 90 | – | – | – | –

Source: patent US10051861B2, “N-arylamidine-substituted trifluoroethyl sulfide derivatives as acaricides and insecticides” (BAYER CROPSCIENCE AG, priority 2011, dated 2018)
